Laboratory results reported in patent US8552066B2, “Modified chalcone compounds as antimitotic agents” (Arizona Biomedical Research Commission, priority 2006, dated 2013).
Like-named read-outs stand apart in the source and are kept apart here.

Assays:
MIA PaCa-2 cells = test: Growth inhibition assay in pancreatic cancer cell lines (MTS); type: cell-based, human
Experimental: (§1) Growth inhibition assays for determination of GI50 values in pancreatic cancer cell lines were typically carried out essentially as follows. Compounds were individually tested at various concentrations against cancer cells grown in cell culture. The cell viability was determined by use of a standard assay that employs 3-(4,5-dimethylthiazol-2-yl)-5-(3-carboxymethoxyphenyl)-2-(4-sulfophenyl)-2H-tetrazolium, inner salt (MTS), and an electron coupling reagent, phenazine methosulfate (PMS). Absorbance at 490 nm (A490) was measured, and survival curves were obtained by comparison of A490 from treated cells with A490 from untreated cells (control). GI50 values were calculated from nonlinear curve fitting.

Melanoma = test: NCI 60-cell-line panel, summary by cancer type; type: cell-based
Experimental: (§2) Cell growth inhibition studies whose results are reported above were carried out at the National Cancer Institute essentially as follows. Cells grown in RPMI 1640 medium containing 5% fetal bovine serum and 2 mM L-glutamine were inoculated into 96-well microtiter plates, which were incubated for 24 hours prior to addition of CMAC-1 at five concentrations. After 48 hours, cold trichloroacetic acid was added, and the plates were washed and air dried. The cells were stained with sulforhodamine B (SRB), and the absorbance was read on an automated plate reader at a wavelength of 515 nm. The percentage growth was calculated at each of the drug concentrations. The growth inhibition of 50% (GI50) was then calculated. The GI50 is the drug concentration resulting in a 50% reduction in the net protein increase (as measured by SRB staining) in control cells during the drug incubation.

[1] = system: individual cell lines of non-small-cell lung cancer (NSCLC); test: NCI 60-cell-line panel, summary by cancer type; type: cell-based
Experimental: as §2

renal cancer = test: NCI 60-cell-line panel, summary by cancer type; type: cell-based
Experimental: as §2

[2] = system: individual cell lines of ovarian cancer; test: NCI 60-cell-line panel, summary by cancer type; type: cell-based
Experimental: as §2

[3] = system: individual cell lines of prostate cancer; test: NCI 60-cell-line panel, summary by cancer type; type: cell-based
Experimental: as §2

[4] = system: individual cell lines of central nervous system (CNS) cancer; test: NCI 60-cell-line panel, summary by cancer type; type: cell-based
Experimental: as §2

HT29 = test: NCI 60-cell-line cancer screen, growth inhibition (SRB); type: cell-based
Experimental: as §2

NCI-H322M = test: as above; type: cell-based; details: NSCLC NCI-H322M, duplicate evaluations
Experimental: as §2

MDA-MB-435 = test: as above; type: cell-based; details: Homo sapiens
Experimental: as §2

HS 578T = test: as above; type: cell-based; details: Breast HS 578T, duplicate evaluations
Experimental: as §2

NCI/ADR-RES = test: as above; type: cell-based; details: Breast NCI/ADR-RES, duplicate evaluations
Experimental: as §2

EKVX = test: as above; type: cell-based; details: NSCLC EKVX, duplicate evaluations
Experimental: as §2

U251 = test: as above; type: cell-based
Experimental: as §2

SNB-75 = test: as above; type: cell-based
Experimental: as §2

NCI-H522 = test: as above; type: cell-based
Experimental: as §2

NCI-H226 = test: as above; type: cell-based
Experimental: as §2

HL60-(TB) = test: as above; type: cell-based; details: Homo sapiens
Experimental: as §2

SF-295 = test: as above; type: cell-based
Experimental: as §2

HCT-15 = test: as above; type: cell-based; details: Homo sapiens
Experimental: as §2

MALMI-3M = test: as above; type: cell-based; details: Melanoma MALMI-3M, duplicate evaluations
Experimental: as §2

OVCAR-3 = test: as above; type: cell-based
Experimental: as §2

SW-620 = test: as above; type: cell-based; details: Homo sapiens
Experimental: as §2

OVCAR-8 = test: as above; type: cell-based
Experimental: as §2

M14 = test: as above; type: cell-based; details: Homo sapiens; Melanoma M14; 48 hours; duplicate evaluations
Experimental: as §2

UACC-257 = test: as above; type: cell-based
Experimental: as §2

SF-268 = test: as above; type: cell-based
Experimental: as §2

NCI-H460 = test: as above; type: cell-based
Experimental: as §2

SR = test: as above; type: cell-based; details: Homo sapiens
Experimental: as §2

RPMI-8226 = test: as above; type: cell-based; details: Homo sapiens
Experimental: as §2

CCRF-CEM = test: as above; type: cell-based; details: Leukemia CCRF-CEM, duplicate evaluations
Experimental: as §2

MCF7 = test: as above; type: cell-based
Experimental: as §2

K562 = test: as above; type: cell-based; details: Homo sapiens
Experimental: as §2

HOP-62 = test: as above; type: cell-based
Experimental: as §2

SF-539 = test: as above; type: cell-based
Experimental: as §2

[5] = system: BxPC-3 (pancreatic) cancer cells; test: Growth inhibition assay in pancreatic cancer cell lines (MTS); type: cell-based; details: read-out: 50% growth inhibition (GI50)
Experimental: as §1

## C/C=C/C(=O)SCC(=O)OCc1ccc(/C=C/C(=O)c2cc(OC)c(OC)c(OC)c2)o1 [CMAF-1, 3-[5-(crotonylsulfanylmethylcarbonyloxymethyl)-2-furyl]-1-(3,4,5-trimethoxyphenyl)propenone]
MIA PaCa-2 cells; human pancreatic cancer cell (MIA PaCa-2) growth in culture, read-out: GI50
  GI50: 17000 nM

## C/C=C/C(=O)SCC(=O)Oc1cc(/C=C/C(=O)c2cc(OC)c(OC)c(OC)c2)ccc1OC [CMAC-1, 3-[3-(crotonylsulfanylmethylcarbonyloxy)-4-methoxyphenyl]-1-(3,4,5-trimethoxyphenyl)propenone]
Melanoma
  GI50: < 75 nM
[1]
  GI50: < 50 nM
Renal cancer
  GI50: < 150 nM
[2]
  GI50: < 50 nM
[3]
  GI50: < 50 nM
[4]
  GI50: < 50 nM
HT29; Colon HT29, 48 hours, duplicate evaluations
  GI50: 1680 nM
HT29; Homo sapiens, HT-29, 48 h, Colon HT29, duplicate evaluations
  GI50: 2870 nM
NCI-H322M; Homo sapiens, NCI-H322M, 48 h
  GI50: 85.1 nM
NCI-H322M; 48 hours
  GI50: 70.3 nM
MDA-MB-435; Breast MDA-MB-435, 48 hours, duplicate evaluations
  GI50: < 10 nM
MDA-MB-435; breast cancer cells MDA-MB-435, Table 2
  GI50: < 10 nM
HS 578T; 48 hours
  GI50: 20.6 nM
HS 578T; Homo sapiens, Hs-578T, 48 h
  GI50: 40.4 nM
NCI/ADR-RES; 48 hours
  GI50: 32.2 nM
NCI/ADR-RES; Homo sapiens, NCI/ADR-RES, 48 h
  GI50: 26.2 nM
EKVX; Homo sapiens, EKVX, 48 h
  GI50: 2090 nM
EKVX; 48 hours
  GI50: 1700 nM
U251; CNS U251, 48 hours, duplicate evaluations
  GI50: 52.1 nM
U251; Homo sapiens, U-251, 48 h, CNS U251, duplicate evaluations
  GI50: 42.7 nM
SNB-75; CNS SNB-75, 48 hours, duplicate evaluations
  GI50: < 10 nM
SNB-75; Homo sapiens, SNB-75, 48 h, CNS SNB-75, duplicate evaluations
  GI50: 16.5 nM
NCI-H522; Homo sapiens, NCI-H522, 48 h, NSCLC NCI-H522, duplicate evaluations
  GI50: 22.4 nM
NCI-H522; NSCLC NCI-H522, 48 hours, duplicate evaluations
  GI50: 15.8 nM
NCI-H226; Homo sapiens, NCI-H226, 48 h, NSCLC NCI-H226, duplicate evaluations
  GI50: 17.2 µM
NCI-H226; NSCLC NCI-H226, 48 hours, duplicate evaluations
  GI50: 11.2 µM
HL60-(TB); HL-60, Leukemia HL60-(TB), 48 hours, duplicate evaluations
  GI50: < 10 nM
HL60-(TB); leukemia HL-60, Table 2
  GI50: < 10 nM
SF-295; CNS SF-295, 48 hours, duplicate evaluations
  GI50: 231 nM
SF-295; Homo sapiens, SF-295, 48 h, CNS SF-295, duplicate evaluations
  GI50: 215 nM
HCT-15; Colon HCT-15, 48 hours, duplicate evaluations
  GI50: < 10 nM
HCT-15; colon HCT-15, Table 2
  GI50: < 10 nM
MALMI-3M; 48 h
  GI50: 74.2 nM
MALMI-3M; 48 hours
  GI50: 44.7 nM
OVCAR-3; Homo sapiens, OVCAR-3, 48 h, Ovarian OVCAR-3, duplicate evaluations
  GI50: 11.6 nM
OVCAR-3; Ovarian OVCAR-3, 48 hours, duplicate evaluations
  GI50: < 10 nM
SW-620; Colon SW-620, 48 hours, duplicate evaluations
  GI50: < 10 nM
SW-620; colon SW-620, Table 2
  GI50: < 10 nM
OVCAR-8; Homo sapiens, OVCAR-8, 48 h, Ovarian OVCAR-8, duplicate evaluations
  GI50: 43.9 nM
OVCAR-8; Ovarian OVCAR-8, 48 hours, duplicate evaluations
  GI50: 47.1 nM
M14
  GI50: 62.3 nM
UACC-257; Homo sapiens, UACC-257, 48 h, Melanoma UACC-257, duplicate evaluations
  GI50: 3.58 µM
UACC-257; Melanoma UACC-257, 48 hours, duplicate evaluations
  GI50: 4.14 µM
SF-268; CNS SF-268, 48 hours, duplicate evaluations
  GI50: 63.8 nM
SF-268; Homo sapiens, SF-268, 48 h, CNS SF-268, duplicate evaluations
  GI50: 81.1 nM
NCI-H460; Homo sapiens, NCI-H460, 48 h, NSCLC NCI-H460, duplicate evaluations
  GI50: 52.4 nM
NCI-H460; NSCLC NCI-H460, 48 hours, duplicate evaluations
  GI50: 33.5 nM
SR; Leukemia SR, 48 hours, duplicate evaluations
  GI50: < 10 nM
SR; leukemia SR, Table 2
  GI50: < 10 nM
RPMI-8226; Leukemia RPMI-8226, 48 hours, duplicate evaluations
  GI50: < 10 nM
RPMI-8226; leukemia RPMI-8226, Table 2
  GI50: < 10 nM
CCRF-CEM; Homo sapiens, CCRF-CEM, 48 h
  GI50: 71.6 nM
CCRF-CEM; 48 hours
  GI50: 86 nM
MCF7; Breast MCF7, 48 hours, duplicate evaluations
  GI50: 30 nM
MCF7; Homo sapiens, MCF7, 48 h, Breast MCF7, duplicate evaluations
  GI50: 28.5 nM
K562; K562, leukemia K-562, Table 2
  GI50: < 10 nM
K562; Leukemia K562, 48 hours, duplicate evaluations
  GI50: < 10 nM
HOP-62; Homo sapiens, HOP-62, 48 h, NSCLC HOP-62, duplicate evaluations
  GI50: 1230 nM
HOP-62; NSCLC HOP-62, 48 hours, duplicate evaluations
  GI50: 1000 nM
SF-539; CNS SF-539, 48 hours, duplicate evaluations
  GI50: < 10 nM
SF-539; Homo sapiens, 48 h, CNS SF-539, duplicate evaluations
  GI50: 16.4 nM
MIA PaCa-2 cells; Homo sapiens, MIA PaCa-2 pancreatic cancer cells in culture, read-out: concentration required for 50% growth inhibition (GI50)
  GI50: 16 nM
other
  melting point: 123 to 125.5 °C

## C=C(Cl)C(=O)Oc1cc(C=CC(=O)c2cc(OC)c(OC)c(OC)c2)ccc1OC [Entry 6, 3-[3-(2-Chloroacryloyloxy)-4-methoxyphenyl]-1-(3,4,5-trimethoxyphenyl)propenone]
[5]
  GI50: 4.5 µM
MIA PaCa-2 cells; MIA PaCa-2 pancreatic cancer cells in culture, read-out: concentration required for 50% growth inhibition (GI50)
  GI50: 56 nM
